Assay results published in article PMC11941218, “Juglone-Bearing Thiopyrano[2,3-d]thiazoles Induce Apoptosis in Colorectal Adenocarcinoma Cells” (Cells, 2025).

How the values were obtained:
[1] = system: Balb/c 3T3 (mouse fibroblasts); experiment: MTT assay; format: cell-based; settings: BALB/c3T3, Balb/c 3T3, MTT, 72 h, M ± SD, n = 3
Description: (§1) DLD-1, HaCaT, and Balb/c 3T3 cells were maintained in DMEM, while HT-29 cells were grown in McCoy’s 5A medium with 10% FBS and 1% penicillin/streptomycin. All cell lines were incubated at 37 °C in a humidified atmosphere with 5% CO2. After detaching the cells with trypsin, they were quantified using a Scepter 3.0 automated cell counter (Millipore, Burlington, MA, USA).
(§2) The metabolic activity of cells exposed to the tested derivatives, doxorubicin, and DMSO, was assessed using an MTT assay according to the manufacturer’s protocol (Sigma-Aldrich, St. Louis, MO, USA). Adherent cells were seeded into 96-well plates (5000–10,000 cells in 100 µL of growth medium per well) and allowed to adhere overnight before treatment. For lymphocytes, activation with phytohemagglutinin-L (1 µg/mL) was performed for 24 h, after which they were seeded in 96-well plates at a density of 100,000 cells/well in RPMI-1640 medium supplemented with 20% FBS. The test substances, including Les-6547, Les-6557, and doxorubicin, were added to 100 µL of culture medium to achieve final concentrations of 0 µM, 0.1 µM, 1 µM, 2.5 µM, 10 µM, and 100 µM for all compounds, and the cells were further incubated for 24, 48, or 72 h. DMSO-treated cells served as the control. Then, 20 µL of MTT solution (5 mg/mL) was added and incubated for 2–4 h to allow formazan crystal formation. The formazan crystals were then solubilized by adding DMSO. The absorbance of formazan was measured at 570 nm using a ThermoScientific Evolution 201 UV-VIS spectrophotometer (ThermoFisher Scientific, Waltham, MA, USA). The control condition with 0.5% DMSO was considered 100% viability. The IC50 values for the compounds were determined using GraphPad Prism 8 and 9 software (GraphPad Software, Boston, MA, USA).

[2] = system: HT-29 colorectal adenocarcinoma cells; experiment: MTT assay; format: cell-based; settings: Homo sapiens, HT-29, MTT, M ± SD, n = 3, read-out: IC50
Description: as §1, §2

[3] = system: HaCaT (human keratinocytes); experiment: MTT assay; format: cell-based; settings: 72 h, M ± SD, n = 3
Description: as §1, §2

[4] = system: DLD-1 colorectal adenocarcinoma cells; experiment: MTT assay; format: cell-based, human; settings: Homo sapiens, DLD-1, MTT, M ± SD, n = 3, read-out: IC50
Description: as §1, §2

Human blood lymphocytes = experiment: MTT assay; format: cell-based; settings: Lymphocyte, human blood lymphocytes, 72 h, M ± SD, n = 3
Description: Lymphocytes from human peripheral blood were isolated with sodium heparin (10 U/mL) as an anticoagulant. Isolation was performed through a density gradient method with the Gradisol G, following a modified procedure. Peripheral blood was mixed with Gradisol G in equal proportions (1:1) and centrifuged at 400× g for 30 min at room temperature. The cells were collected, washed in phosphate-buffered saline (PBS), and treated with a hypotonic solution to remove residual erythrocytes. Lymphocytes were activated by phytohemagglutinin-L (1 µg/mL) and cultured in RPMI-1640 medium supplemented with 20% fetal bovine serum under controlled conditions of 95% air and 5% CO2 [27].
as §2

[5] = system: DLD-1 colorectal adenocarcinoma cells; experiment: Colony forming (clonogenic) assay; format: cell-based, human
Description: (§3) For colony forming assay, HT-29 and DLD-1 cells were seeded in 12-well plates at a density of 500 cells in 2 mL of growth medium per well. After overnight incubation, the cells were exposed to the compounds Les-6547, Les-6557, and doxorubicin at concentrations ranging from 0.1 to 100 µM for 72 h. Following treatment, the medium was replaced with fresh medium without the compounds. After 14 days of culture, cells were rinsed with PBS and fixed with cold methanol for 10 min. Subsequently, the cells were stained with a 0.1% crystal violet solution for 10 min. After washing, the plates were allowed to dry at room temperature. Numbers of colonies were quantified using ImageJ software (version 1.5.4; National Institutes of Health, Bethesda, MD, USA). The effect of the compounds on the colony-forming capacity was calculated as a percentage of colonies relative to the untreated control group.

[6] = system: HT-29 colorectal adenocarcinoma cells; experiment: Colony forming (clonogenic) assay; format: cell-based, human; settings: Homo sapiens
Description: as §3

[7] = system: DLD-1 colorectal adenocarcinoma cells; experiment: [^3H]-thymidine incorporation assay (DNA biosynthesis); format: cell-based; settings: Homo sapiens; DLD-1, 24 h, M ± SD, n = 3
Description: (§4) The anti-proliferative potential of Les-6547 and Les-6557 was analyzed using a clonogenic assay and incorporation of radioactive [^3H]-thymidine into the DNA of colorectal adenocarcinoma HT-29 and DLD-1 cell lines after 24 h of incubation with various concentrations of the tested agents.
(§5) Next, we examined the effects of the tested compounds on the proliferative activity of human colorectal adenocarcinoma cells by assessing their ability to influence DNA biosynthesis using the thymidine incorporation assay (Figure 6, Table 8). Les-6547 decreased DNA biosynthesis in DLD-1 cells to 50% at a concentration of 2.19 ± 0.39 µM.

[8] = system: HT-29 colorectal adenocarcinoma cells; experiment: as above; format: cell-based; settings: Homo sapiens; HT-29, 24 h, M ± SD, n = 3
Description: as §4, §5

IC50 ([2]; 24 h): 17000 ± 880 nM | IC50 ([2]; 48 h): 1550 ± 140 nM | IC50 ([2]; 72 h): 2110 ± 60 nM | IC50 ([4]; 24 h): 65300 ± 6080 nM | IC50 ([4]; 48 h): 2010 ± 90 nM | IC50 ([4]; 72 h): 760 ± 100 nM | IC50 ([5]; Homo sapiens, DLD-1, 72 h treatment, 14 days of incubation, M ± SD, n = 3): 3230 ± 50 nM | IC50 ([6]; HT-29, 72 h treatment, 14 days of incubation, n = 3): ~500 nM | IC50 [7]: 6390 ± 20 nM | IC50 [8]: 4720 ± 800 nM
SMILES: COc1cccc2c1C(=O)c1c(O)c3c(c(O)c1C2=O)C[C@@](O)(C(=O)CO)C[C@@H]3O[C@H]1C[C@H](N)[C@H](O)[C@H](C)O1 [Doxorubicin, doxorubicin, reference compound]
IC50 [1]: 560 ± 110 nM | IC50 [3]: 900 ± 100 nM | IC50 (Human blood lymphocytes): 710 ± 110 nM | colony growth ([5]; DLD-1, 10 µM): 3.86% | inhibition at 1 µM ([6]; HT-29, 1 µM, read-out: inhibition of colony formation): 100%
